From publication PMC12597549 (Drug Metabolism and Disposition, 2025)

Tests used:
UGT1A9 = test system: UGT1A9; design: method as in Bansal et al., 2023; details: enzyme kinetic (HLM); ref Bansal et al., 2023; cited from earlier work
CYP2C8 = test system: CYP2C8; design: method as in Bansal et al., 2023; details: enzyme kinetic (HLM); ref Bansal et al., 2023; cited from earlier work
[1] = ref Bansal et al., 2022, cited from earlier work
[2] = set value for static model; ref Cox et al., 2019; cited from earlier work
UGT2B7 [3] = test system: UGT2B7; design: method as in Bansal et al., 2023; details: enzyme kinetic (HLM); ref Bansal et al., 2023; cited from earlier work
CYP2D6 = test system: CYP2D6; design: method as in Bansal et al., 2023; details: enzyme kinetic (HLM); ref Bansal et al., 2023; cited from earlier work
CYP2B6 = test system: CYP2B6; design: method as in Bansal et al., 2023; details: enzyme kinetic (HLM); ref Bansal et al., 2023; cited from earlier work
CYP2C19 [4] = test system: CYP2C19; design: method as in Bansal et al., 2023; details: enzyme kinetic (HLM); ref Bansal et al., 2023; cited from earlier work
[5] = cannabidiol PBPK input; ref ChEMBL database (https://www.ebi.ac.uk/); cited from earlier work
CYP3A4 = test system: CYP3A4; design: method as in Bansal et al., 2023; details: enzyme kinetic (HLM); ref Bansal et al., 2023; cited from earlier work
UGT2B7^268Tyr = biological target: T1, UGT2B7^268Tyr (Homo sapiens, UniProt P16662); experiment: in vitro
T1 sequence (P16662 24-529): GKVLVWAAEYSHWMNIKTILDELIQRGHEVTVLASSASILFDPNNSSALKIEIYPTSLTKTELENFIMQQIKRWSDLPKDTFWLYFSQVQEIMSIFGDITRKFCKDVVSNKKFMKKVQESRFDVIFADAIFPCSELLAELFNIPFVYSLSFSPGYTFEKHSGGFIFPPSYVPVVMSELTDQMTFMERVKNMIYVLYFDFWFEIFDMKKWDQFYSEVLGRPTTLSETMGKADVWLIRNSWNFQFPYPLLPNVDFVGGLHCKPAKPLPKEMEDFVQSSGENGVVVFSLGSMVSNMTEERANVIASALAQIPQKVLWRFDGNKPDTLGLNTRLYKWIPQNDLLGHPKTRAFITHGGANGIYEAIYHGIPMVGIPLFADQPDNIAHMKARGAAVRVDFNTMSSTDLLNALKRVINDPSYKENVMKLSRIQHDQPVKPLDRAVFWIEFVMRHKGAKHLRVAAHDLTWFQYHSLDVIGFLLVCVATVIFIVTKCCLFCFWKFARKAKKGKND

CYP2C19 [6] = test system: CYP2C19; design: method as in Bansal et al., 2020; details: ref Bansal et al., 2020, read-out: KI,u (binding-corrected half-maximal inactivation concentration); cited from earlier work
CYP1A2 [7] = test system: CYP1A2; design: method as in Bansal et al., 2020; details: ref Bansal et al., 2020, read-out: KI,u (binding-corrected half-maximal inactivation concentration); cited from earlier work
CYP1A2 [8] = test system: CYP1A2; design: method as in Bansal et al., 2023; details: enzyme kinetic (HLM); ref Bansal et al., 2023; cited from earlier work
[9] = test system: UGT2B7-mediated hydromorphone metabolism; experiment: Static mechanistic IVIVE modeling of cannabinoid-hydromorphone drug interaction (AUCR); design: species or system human; details: after inhalation and oral consumption of THC and CBD
CYP2C9 = test system: CYP2C9; design: method as in Bansal et al., 2023; details: enzyme kinetic (HLM); ref Bansal et al., 2023; cited from earlier work
[10] = biological target: T2, UGT2B7 in pooled human liver microsomes (HLM) (Homo sapiens, UniProt P16662); experiment: Inhibition of UGT2B7-mediated hydromorphone glucuronidation by cannabinoids in pooled HLM (screening, IC50, Ki, inhibition type); format: biochemical; details: type of reversible inhibition of UGT2B7-mediated hydromorphone metabolism in HLM; Lineweaver-Burk replots
T2 sequence (P16662 24-529): T1 sequence (P16662 24-529)

UGT2B7 [11] = biological target: T3, UGT2B7 (Homo sapiens, UniProt P16662); experiment: as above; format: biochemical; details: human, pooled human liver microsomes
T3 sequence (P16662 24-529): T1 sequence (P16662 24-529)

CYP3A = test system: CYP3A; design: method as in Bansal et al., 2020; details: ref Bansal et al., 2020, read-out: KI,u (binding-corrected half-maximal inactivation concentration); cited from earlier work
[12] = first-order absorption model, fasted
[13] = probe hydromorphone 400 μM (HM3G formation)

C=C(C)[C@@H]1CCC(C)=C[C@H]1c1c(O)cc(CCCCC)cc1O [CBD, cannabidiol]
CLint, UGT: UGT1A9 (UGT1A9): 541 µL/min/mg of protein
CLint, CYP: CYP2C8 (CYP2C8): 51 µL/min/mg of protein
Lag time ([1]; fasted): 1.5^1 hr
fa [1, 12]: 0.25^1
ka [1, 12]: 0.55^1 1/hr
Fraction unbound in plasma [1]: 0.013
Qgut [1]: 10.24 L/h
fugut [1]: 0.013
ka (first-order absorption rate constant) [2]: 0.02
CLint, UGT: UGT2B7 (UGT2B7 [3]): 2162 µL/min/mg of protein
CLint, CYP: CYP2D6 (CYP2D6): 38 µL/min/mg of protein
CLint, CYP: CYP2B6 (CYP2B6): 46 µL/min/mg of protein
CLint, CYP: CYP2C19 (CYP2C19 [4]): 193 µL/min/mg of protein
Log P [5]: 6.33
pKa [5]: 9.13
CLint, CYP: CYP3A4 (CYP3A4): 220 µL/min/mg of protein
inhibition at 100 μM (UGT2B7^268Tyr): 96%
KI (inactivation) (CYP2C19 [6]): 73 nM
KI (inactivation) (CYP1A2 [7]): 20 nM
CLint, CYP: CYP1A2 (CYP1A2 [8]): 56 µL/min/mg of protein
increase in hydromorphone exposure (static modeling) [9]: > 1.25 fold
CLint, CYP: CYP2C9 (CYP2C9): 93 µL/min/mg of protein
Inhibition Type [10]: Competitive
IC50 (UGT2B7 [11]; [13]): 140 ± 40 nM
inhibition at 100 μM (UGT2B7 [11]; [13]): 83%
Ki (UGT2B7 [11]; HLM, Ki corrected for nonspecific binding (fu,inc from refs 32,33; 11-OH-THC fu,inc as surrogate for 7-OH-CBD), competitive model, mixed model for 11-OH-THC, read-out: Ki,u): 68 ± 3 nM
KI (inactivation) (CYP3A): 106 nM
